Test results: US11427596B2, “Metal-free solvent-free synthesis of fused-pyrido heterocycles and biomedical applications” (Indian Institute of Technology Indore, priority 2019, dated 2022)

System: Mycobacterium bovis
Format: cell-based
Conditions: virulent/opportunistic multidrug resistant Mycobacterium bovis (BCG), incubation 48 hrs, n=3

SMILES: Cc1ccc(-c2nc(COCc3cn(CCN4C(=O)C(=O)c5ccccc54)nn3)cc3oc(C)cc23)o1 [compound 26, 1-(2-(4-(((2-Methyl-4-(5-methylfuran-2-yl)furo[3,2-c]pyridin-6-yl)methoxy)methyl)-1H-1,2,3-triazol-1-yl)ethyl)indoline-2,3-dione]
- concentration range in which active (antituberculosis activity): 70 to 100 µM
